Assay results: patent publication US20080145424A1, “Sustained release L-arginine formulations and methods of manufacture and use” (Enos Phramaceuticals, Inc., priority 2002, published 2008)

Tested on: total infarct volume
Experiment: Dose optimization of combination of simvastatin and L-arginine, infarct volume in mice
Type: in vivo
Details: mice injected with varying levels of simvastatin and L-arginine; predicted by statistical analysis

CCC(C)(C)C(=O)O[C@H]1C[C@@H](C)C=C2C=C[C@H](C)[C@H](CC[C@@H]3C[C@@H](O)CC(=O)O3)[C@H]21 [simvastatin]
optimal range of the combination: 1.2 to 1.4 mg/kg
